# Experimental data taken from PubChem BioAssay (NCI).
#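 GI50 = concentration required for 50% inhibition of growth. TGI denotes the concentration required for complete inhibition of growth.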
# How the values were obtained:
# Experiment in all cases: inhibition of tumour cell growth, NCI panel, 384-well format
# [1] = tested on: HCT-116 colon
# [2] = tested on: MDA-MB-435 melanoma
# [3] = tested on: 786-0 renal
# [4] = tested on: RXF 393 renal
# [5] = tested on: A549 NSCLC
# [6] = tested on: HCC-2998 colon
# [7] = tested on: MDA-MB-231 breast
# [8] = tested on: PC-3 prostate
# [9] = tested on: HL-60(TB) leukemia
# [10] = tested on: UO-31 renal
# [11] = tested on: HCT-15 colon
# [12] = tested on: SK-MEL-5 melanoma
# [13] = tested on: NCI-H226 lung
# [14] = tested on: ACHN renal
# [15] = tested on: OVCAR-3 ovarian
# [16] = tested on: KM12 colon
# [17] = tested on: A498 renal
# [18] = tested on: NCI/ADR-RES ovarian
# [19] = tested on: IGROV1 ovarian
# [20] = tested on: SF-268 CNS
# [21] = tested on: SNB-75 CNS
# [22] = tested on: SK-MEL-28 melanoma
# [23] = tested on: UACC-62 melanoma
# [24] = tested on: CAKI-1 renal
# [25] = tested on: EKVX NSCLC
# [26] = tested on: OVCAR-4 ovarian
# [27] = tested on: MALME-3M melanoma
# [28] = tested on: NCI-H460 NSCLC
# [29] = tested on: U251 glioblastoma
# [30] = tested on: DU-145 prostate
# [31] = tested on: SF-295 CNS
# [32] = tested on: HS 578T breast
# [33] = tested on: COLO 205 colon
# [34] = tested on: LOX IMVI melanoma
# [35] = tested on: TK-10 renal
# [36] = tested on: SNB-19 CNS
# [37] = tested on: MOLT-4 leukemia
# [38] = tested on: HOP-92 NSCLC
# [39] = tested on: SK-OV-3 ovarian
# [40] = tested on: HT29 colon
# [41] = tested on: MCF7 breast
# [42] = tested on: SN12C renal
# [43] = tested on: M14 melanoma
# [44] = tested on: BT-549 breast
# [45] = tested on: SK-MEL-2 melanoma
# [46] = tested on: NCI-H23 lung
# [47] = tested on: NCI-H322M lung
# [48] = tested on: UACC-257 melanoma
# [49] = tested on: SW-620 colon
# [50] = tested on: NCI-H522 lung
# [51] = tested on: RPMI-8226 leukemia
# [52] = tested on: OVCAR-5 ovarian
# [53] = tested on: K-562 leukemia
# [54] = tested on: HOP-62 NSCLC
# [55] = tested on: T-47D breast
# [56] = tested on: SF-539 CNS
# [57] = tested on: CCRF-CEM leukemia
# [58] = tested on: OVCAR-8 ovarian
# [59] = tested on: MDA-MB-468 breast
compound,measurement,setting,value
CO[C@@H](C(=O)N1Cc2[nH]nc(NC(=O)c3ccc(N4CCN(C)CC4)cc3)c2C1)c1ccccc1,GI50,[1],0.12 µM
same,TGI,[1],25.2 µM
same,GI50,[2],16.9 µM
same,TGI,[2],32.9 µM
same,GI50,[3],2.53 µM
same,TGI,[3],15.1 µM
same,GI50,[4],0.334 µM
same,TGI,[4],2.04 µM
same,GI50,[5],0.442 µM
same,TGI,[5],15.5 µM
same,GI50,[6],12.7 µM
same,TGI,[6],30.3 µM
same,GI50,[7],2.36 µM
same,TGI,[7],> 100 µM
same,GI50,[8],1.63 µM
same,TGI,[8],48.6 µM
same,GI50,[9],0.0466 µM
same,TGI,[9],1.51 µM
same,GI50,[10],11 µM
same,TGI,[10],25.4 µM
same,GI50,[11],14.7 µM
same,TGI,[11],> 100 µM
same,GI50,[12],11.2 µM
same,TGI,[12],24.6 µM
same,GI50,[13],0.623 µM
same,TGI,[13],4.91 µM
same,GI50,[14],2.41 µM
same,TGI,[14],18.6 µM
same,GI50,[15],0.113 µM
same,TGI,[15],2.64 µM
same,GI50,[16],0.175 µM
same,TGI,[16],10.9 µM
same,GI50,[17],1.23 µM
same,TGI,[17],25.6 µM
same,GI50,[18],> 100 µM
same,TGI,[18],> 100 µM
same,GI50,[19],0.547 µM
same,TGI,[19],2.79 µM
same,GI50,[20],1.02 µM
same,TGI,[20],2.69 µM
same,GI50,[21],0.769 µM
same,TGI,[21],2.09 µM
same,GI50,[22],2.67 µM
same,TGI,[22],18.7 µM
same,GI50,[23],0.561 µM
same,TGI,[23],20.1 µM
same,GI50,[24],1.21 µM
same,TGI,[24],9.85 µM
same,GI50,[25],1.05 µM
same,TGI,[25],15.8 µM
same,GI50,[26],0.566 µM
same,TGI,[26],23.9 µM
same,GI50,[27],0.642 µM
same,TGI,[27],15.2 µM
same,GI50,[28],0.0885 µM
same,TGI,[28],1.26 µM
same,GI50,[29],1.71 µM
same,TGI,[29],16.9 µM
same,GI50,[30],0.451 µM
same,TGI,[30],24.4 µM
same,GI50,[31],1.7 µM
same,TGI,[31],54.4 µM
same,GI50,[32],1.1 µM
same,TGI,[32],2.44 µM
same,GI50,[33],0.0244 µM
same,TGI,[33],0.0639 µM
same,GI50,[34],0.33 µM
same,TGI,[34],1.69 µM
same,GI50,[35],1.59 µM
same,TGI,[35],17.8 µM
same,GI50,[36],2.29 µM
same,TGI,[36],> 100 µM
same,GI50,[37],0.0189 µM
same,TGI,[37],0.0445 µM
same,TGI,[38],2.8 µM
same,GI50,[39],0.899 µM
same,TGI,[39],12.5 µM
same,GI50,[40],4.96 µM
same,TGI,[40],> 100 µM
same,GI50,[41],0.0371 µM
same,TGI,[41],13.7 µM
same,GI50,[42],0.737 µM
same,TGI,[42],3.53 µM
same,GI50,[43],9.89 µM
same,TGI,[43],26.3 µM
same,GI50,[44],0.27 µM
same,TGI,[44],1.47 µM
same,GI50,[45],15.5 µM
same,TGI,[45],29.1 µM
same,GI50,[46],0.822 µM
same,TGI,[46],12.9 µM
same,GI50,[47],3.17 µM
same,TGI,[47],16.7 µM
same,GI50,[48],13.1 µM
same,TGI,[48],26.4 µM
same,GI50,[49],0.848 µM
same,TGI,[49],13 µM
same,GI50,[50],0.0346 µM
same,TGI,[50],0.561 µM
same,GI50,[51],0.327 µM
same,TGI,[51],1.46 µM
same,GI50,[52],1.7 µM
same,TGI,[52],9.22 µM
same,GI50,[53],0.0326 µM
same,TGI,[53],0.167 µM
same,GI50,[54],0.676 µM
same,TGI,[54],10.5 µM
same,GI50,[55],9.18 µM
same,TGI,[55],28 µM
same,GI50,[56],0.237 µM
same,TGI,[56],1.42 µM
CN(CCO)C1CCN(c2ccc(Nc3ncc4c5ccnc(F)c5n(C5CCCC5)c4n3)nc2)CC1,GI50,[1],0.684 µM
same,TGI,[1],2.05 µM
same,GI50,[2],2.26 µM
same,TGI,[2],9.49 µM
same,GI50,[3],1.15 µM
same,TGI,[3],2.37 µM
same,GI50,[57],0.0893 µM
same,TGI,[57],1.25 µM
same,GI50,[4],1.28 µM
same,TGI,[4],2.55 µM
same,GI50,[5],0.619 µM
same,TGI,[5],1.99 µM
same,GI50,[6],0.655 µM
same,TGI,[6],2.01 µM
same,GI50,[7],1.26 µM
same,TGI,[7],2.71 µM
same,GI50,[8],1.43 µM
same,TGI,[8],2.79 µM
same,GI50,[9],0.0521 µM
same,TGI,[9],1.76 µM
same,GI50,[10],1.2 µM
same,TGI,[10],2.45 µM
same,GI50,[11],1.08 µM
same,TGI,[11],2.32 µM
same,GI50,[12],0.48 µM
same,TGI,[12],2.03 µM
same,GI50,[13],5.22 µM
same,TGI,[13],> 100 µM
same,GI50,[14],1 µM
same,TGI,[14],2.19 µM
same,GI50,[15],1.87 µM
same,TGI,[15],3.29 µM
same,GI50,[16],0.0568 µM
same,TGI,[16],1.28 µM
same,GI50,[17],0.853 µM
same,TGI,[17],2.12 µM
same,GI50,[18],1.74 µM
same,TGI,[18],3.17 µM
same,GI50,[19],1.05 µM
same,TGI,[19],2.26 µM
same,GI50,[20],0.0794 µM
same,TGI,[20],0.941 µM
same,GI50,[21],1.48 µM
same,TGI,[21],2.81 µM
same,GI50,[22],4.06 µM
same,TGI,[22],16.2 µM
same,GI50,[23],1.35 µM
same,TGI,[23],2.64 µM
same,GI50,[24],0.868 µM
same,TGI,[24],2.15 µM
same,GI50,[25],1.27 µM
same,TGI,[25],2.56 µM
same,GI50,[26],1.73 µM
same,TGI,[26],3.13 µM
same,GI50,[27],1.34 µM
same,TGI,[27],2.64 µM
same,GI50,[28],0.188 µM
same,TGI,[28],1.81 µM
same,GI50,[29],1.12 µM
same,TGI,[29],2.35 µM
same,GI50,[30],1.72 µM
same,TGI,[30],3.13 µM
same,GI50,[31],0.881 µM
same,TGI,[31],2.15 µM
same,GI50,[32],1.42 µM
same,TGI,[32],3.2 µM
same,GI50,[58],1.62 µM
same,TGI,[58],3.01 µM
same,GI50,[33],0.373 µM
same,TGI,[33],1.95 µM
same,GI50,[34],0.977 µM
same,TGI,[34],2.18 µM
same,GI50,[35],1.37 µM
same,TGI,[35],2.7 µM
same,GI50,[36],1.37 µM
same,TGI,[36],2.76 µM
same,GI50,[37],0.0624 µM
same,TGI,[37],0.812 µM
same,GI50,[38],3.02 µM
same,TGI,[38],15.4 µM
same,GI50,[39],1.45 µM
same,TGI,[39],2.78 µM
same,GI50,[40],1.02 µM
same,TGI,[40],2.23 µM
same,GI50,[41],0.353 µM
same,TGI,[41],1.76 µM
same,GI50,[42],3.02 µM
same,TGI,[42],14.9 µM
same,GI50,[43],1.19 µM
same,TGI,[43],2.44 µM
same,GI50,[44],1.49 µM
same,TGI,[44],2.83 µM
same,GI50,[46],1.2 µM
same,TGI,[46],2.46 µM
same,GI50,[47],1.34 µM
same,TGI,[47],2.64 µM
same,GI50,[48],1.55 µM
same,TGI,[48],2.9 µM
same,GI50,[49],0.574 µM
same,TGI,[49],2.01 µM
same,GI50,[50],1.77 µM
same,TGI,[50],3.17 µM
same,GI50,[59],1.63 µM
same,TGI,[59],2.99 µM
same,GI50,[51],0.0477 µM
same,TGI,[51],1.12 µM
same,GI50,[52],0.885 µM
same,TGI,[52],> 100 µM
same,GI50,[53],0.664 µM
same,TGI,[53],2.09 µM
same,GI50,[54],1.17 µM
same,TGI,[54],2.42 µM
same,GI50,[55],1.88 µM
same,TGI,[55],67.5 µM
same,GI50,[56],1.38 µM
same,TGI,[56],2.68 µM
